In patent publication US20220153734A1, “Pyrazolopyridine Compounds For IRE1 Inhibition” (Optikira, LLC, priority 2019, published 2022) one finds IC50 data, which are given here for 16 compounds.

Usually IC50 stands for the point on the concentration scale where inhibition reaches its midpoint. A lower IC50 goes with higher potency.

The test system of test [1] is ARPE-19 cells stably expressing XBP1 (a.a. 1-376). In words: Cellular XBP1 splicing assay (NanoLuc luciferase, thapsigargin). Particulars: thapsigargin 150 nM. The format is cell-based. The method in brief: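 ARPE-19 cells carrying an XBP1(1-376)-NanoLuc splicing reporter were pretreated with compound (10-point ½-log series, 0.117% DMSO) for 30 min, then stressed with 150 nM thapsigargin for 4 h at 37° C. Luminescence was read, and IC50 values came from sigmoidal fits of percent inhibition of control.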

The target in the next test is T1, IRE1α (Homo sapiens, UniProt O75460).
T1 construct: purchased Signal Chem E31-11G
In words: Biochemical assay: inhibition of RNase activity of IRE1α. The note with it: enzyme 0.325 nM, substrate 100 nM, 20 minutes. The method, boiled down: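 RNase cleavage monitored as dequenching of a 5′ Alexa Fluor 647/3′ quencher RNA oligo (100 nM), stopped with 5 M urea after 20 min at room temperature. Enzyme 0.325 nM, preceded by 30 min compound pre-incubation; buffer Tris/MgCl2/KCl/DTT/Tween, 4% DMSO final. IC50 from curve fit of % inhibition.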

T1 sequence (O75460 468-977 limits assumed): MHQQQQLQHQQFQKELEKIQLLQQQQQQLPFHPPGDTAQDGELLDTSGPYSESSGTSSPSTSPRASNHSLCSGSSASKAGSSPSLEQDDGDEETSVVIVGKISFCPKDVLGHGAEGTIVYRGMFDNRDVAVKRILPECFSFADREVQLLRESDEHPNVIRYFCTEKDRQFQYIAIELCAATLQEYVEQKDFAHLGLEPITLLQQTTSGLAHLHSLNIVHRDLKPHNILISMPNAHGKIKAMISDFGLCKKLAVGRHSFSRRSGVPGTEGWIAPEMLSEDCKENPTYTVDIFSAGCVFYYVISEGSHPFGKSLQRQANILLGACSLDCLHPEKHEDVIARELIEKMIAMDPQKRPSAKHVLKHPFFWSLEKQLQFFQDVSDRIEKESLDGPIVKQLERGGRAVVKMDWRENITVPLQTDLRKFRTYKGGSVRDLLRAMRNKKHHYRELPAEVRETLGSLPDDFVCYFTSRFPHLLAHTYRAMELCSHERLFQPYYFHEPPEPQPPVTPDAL

As for `CCn1nc(-c2ccc(NS(=O)(=O)Cc3ccccc3Cl)c(F)c2)c2c(N)ncc(C3=CCC(NC4COC4)CC3)c21` (single isomer, unassigned) [Compound B29, N-(4-(4-amino-1-ethyl-7-(4-(oxetan-3-ylamino)cyclohex-1-en-1-yl)-1H-pyrazolo[4,3-c]pyridin-3-yl)-2-fluorophenyl)-1-(2-chlorophenyl)methanesulfonamide], the 50% inhibitory concentration (IC50) in test [1] (4 hour) was found to be 68 nM; on IRE1α, 7.4 nM.
On the same counts, the results for `CCn1nc(-c2ccc(NS(=O)(=O)c3ccccc3F)c(F)c2)c2c(N)ncc(C3=CCC(NC4COC4)CC3)c21` (single isomer, unassigned) [Compound B34, N-(4-(4-amino-1-ethyl-7-(4-(oxetan-3-ylamino)cyclohex-1-en-1-yl)-1H-pyrazolo[4,3-c]pyridin-3-yl)-2-fluorophenyl)-2-fluorobenzenesulfonamide] are 400 nM and 100 nM.
With `COCCNC1CC=C(c2cnc(N)c3c(-c4ccc(NS(=O)(=O)Cc5ccccc5Cl)c(F)c4)nn(C(C)C)c23)CC1` (single isomer, unassigned) [Compound B54, N-(4-(4-amino-1-isopropyl-7-(4-((2-methoxyethyl)amino)cyclohex-1-en-1-yl)-1H-pyrazolo[4,3-c]pyridin-3-yl)-2-fluorophenyl)-1-(2-chlorophenyl)methanesulfonamide], the results for the concentration for half-maximal inhibition (IC50) (in test [1] (4 hour); against IRE1α) were 28 nM and 2 nM, respectively.
For `COCCN[C@H]1CC[C@H](c2cnc(N)c3c(-c4cc(F)c(NS(=O)(=O)c5ccc(OC)cc5)cc4F)nn(C(C)C)c32)CC1` [Compound A9, N-(4-(4-amino-1-isopropyl-7-((1r,4r)-4-((2-methoxyethyl)amino)cyclohexyl)-1H-pyrazolo[4,3-c]pyridin-3-yl)-2,5-difluorophenyl)-4-methoxybenzenesulfonamide], the concentration for half-maximal inhibition (IC50) came to 110 nM in test [1] (Homo sapiens, ARPE-19, 4 h) and 20 nM on IRE1α.
For the compound `COCCN[C@H]1CC[C@H](c2cnc(N)c3c(-c4cc(F)c(NS(=O)(=O)c5cc(OC)ccc5F)cc4F)nn(C(C)C)c32)CC1` [Compound A28], the concentration for half-maximal inhibition (IC50) is 6.9 nM in test [1] (Homo sapiens, ARPE-19, 4 h) and 2.9 nM at IRE1α.
Consider `COCCN[C@H]1CC[C@H](c2cnc(N)c3c(-c4cc(F)c(NS(=O)(=O)c5ccc(Cl)cc5)cc4F)nn(C(C)C)c32)CC1` [Compound A14, N-(4-(4-amino-1-isopropyl-7-((1r,4r)-4-((2-methoxyethyl)amino)cyclohexyl)-1H-pyrazolo[4,3-c]pyridin-3-yl)-2,5-difluorophenyl)-4-chlorobenzenesulfonamide], for which the half-inhibitory concentration (IC50) in test [1] (Homo sapiens, ARPE-19, 4 h) is 240 nM; against IRE1α, 21 nM.
Turning to `Nc1ncc([C@H]2CC[C@H](NC3COC3)CC2)c2c1c(-c1ccc(NS(=O)(=O)Cc3ccccc3Cl)c(F)c1)nn2C1CC1` [Compound A55, N-(4-(4-amino-1-cyclopropyl-7-((1r,4r)-4-(oxetan-3-ylamino)cyclohexyl)-1H-pyrazolo[4,3-c]pyridin-3-yl)-2-fluorophenyl)-1-(2-chlorophenyl)methanesulfonamide], the IC50 in test [1] (Homo sapiens, ARPE-19, 4 h) was 7.2 nM; against IRE1α, 0.7 nM.
For `CC(C)n1nc(-c2cc(F)c(NS(=O)(=O)Cc3ccccc3F)cc2F)c2c(N)ncc([C@H]3CC[C@H](N(C)C)CC3)c21` [Compound A22, N-(4-(4-amino-7-((1r,4r)-4-(dimethylamino)cyclohexyl)-1-isopropyl-1H-pyrazolo[4,3-c]pyridin-3-yl)-2,5-difluorophenyl)-1-(2-fluorophenyl)methanesulfonamide], the IC50 in test [1] (Homo sapiens, ARPE-19, 4 h) was 15 nM; at IRE1α it was 1.8 nM.
As to `CCn1nc(-c2ccc(NS(=O)(=O)c3cc(C)ccc3F)c(F)c2)c2c(N)ncc(C3=CCC(NC4COC4)CC3)c21` (single isomer, unassigned) [Compound B35, N-(4-(4-amino-1-ethyl-7-(4-(oxetan-3-ylamino)cyclohex-1-en-1-yl)-1H-pyrazolo[4,3-c]pyridin-3-yl)-2-fluorophenyl)-2-fluoro-5-methylbenzenesulfonamide], the IC50 was determined as 52 nM in test [1] (4 hour) and 14 nM at IRE1α.
Regarding `CC(C)n1nc(-c2ccc(NS(=O)(=O)c3ccccc3Cl)c(F)c2)c2c(N)ncc(C3=CCC(NC4COC4)CC3)c21` (racemic) [racemic mixture of B56 & B57, N-(4-(4-amino-1-isopropyl-7-(4-(oxetan-3-ylamino)cyclohex-1-en-1-yl)-1H-pyrazolo[4,3-c]pyridin-3-yl)-2-fluorophenyl)-2-chlorobenzenesulfonamide], the half-inhibitory concentration (IC50) in test [1] (Homo sapiens, ARPE-19, 4 h) was determined as 52 nM; against IRE1α, 26 nM.
Take `CC(C)n1nc(-c2cc(F)c(NS(=O)(=O)c3ccccc3F)cc2F)c2c(N)ncc([C@H]3CC[C@H](N(C)C)CC3)c21` [Compound A40, N-(4-(4-amino-7-((1r,4r)-4-(dimethylamino)cyclohexyl)-1-isopropyl-1H-pyrazolo[4,3-c]pyridin-3-yl)-2,5-difluorophenyl)-2-fluorobenzenesulfonamide]: the IC50 in test [1] (Homo sapiens, ARPE-19, 4 h) stood at 27 nM; at IRE1α, 5.6 nM.
Consider `CCn1nc(-c2ccc(NS(=O)(=O)c3ccccc3F)c(F)c2)c2c(N)ncc(C3=CCC(NC4COC4)CC3)c21` (single isomer, unassigned) [Compound B33, N-(4-(4-amino-1-ethyl-7-(4-(oxetan-3-ylamino)cyclohex-1-en-1-yl)-1H-pyrazolo[4,3-c]pyridin-3-yl)-2-fluorophenyl)-2-fluorobenzenesulfonamide], for which the IC50 was 100 nM in test [1] (4 hour) and 60 nM on IRE1α.
In the case of `CC(C)n1nc(-c2ccc(NS(=O)(=O)Cc3ccccc3Cl)c(F)c2)c2c(N)ncc([C@H]3CC[C@H](NC4COC4)CC3)c21` [Compound A39, N-(4-(4-amino-1-isopropyl-7-((1r,4r)-4-(oxetan-3-ylamino)cyclohexyl)-1H-pyrazolo[4,3-c]pyridin-3-yl)-2-fluorophenyl)-1-(2-chlorophenyl)methanesulfonamide], the IC50 in test [1] (Homo sapiens, ARPE-19, 4 h) amounted to 1.7 nM; on IRE1α, 0.3 nM.
Take `CC(C)n1nc(-c2ccc(NS(=O)(=O)c3cc(Cl)ccc3F)c(F)c2)c2c(N)ncc(C3=CCC(NC4COC4)CC3)c21` (single isomer, unassigned) [Compound B15, N-(4-(4-amino-1-isopropyl-7-(4-(oxetan-3-ylamino)cyclohex-1-en-1-yl)-1H-pyrazolo[4,3-c]pyridin-3-yl)-2-fluorophenyl)-5-chloro-2-fluorobenzenesulfonamide]: the figures for the half-inhibitory concentration (IC50) (in test [1] (4 hour); on IRE1α) were 24 nM and 1.4 nM, respectively.
Regarding `COCCN[C@H]1CC[C@H](c2cnc(N)c3c(-c4cc(F)c(NS(=O)(=O)Cc5ccccc5F)cc4F)nn(C(C)C)c32)CC1` [Compound A26, N-(4-(4-amino-1-isopropyl-7-((1r,4r)-4-((2-methoxyethyl)amino)cyclohexyl)-1H-pyrazolo[4,3-c]pyridin-3-yl)-2,5-difluorophenyl)-1-(2-fluorophenyl)methanesulfonamide], the concentration for half-maximal inhibition (IC50) amounted to 13 nM in test [1] (Homo sapiens, ARPE-19, 4 h) and 1.5 nM against IRE1α.
The matching figures for `COCCN[C@H]1CC[C@H](c2cnc(N)c3c(-c4cc(F)c(NS(=O)(=O)c5ccccc5F)cc4F)nn(C(C)C)c32)CC1` [Compound A37, N-(4-(4-amino-1-isopropyl-7-((1r,4r)-4-((2-methoxyethyl)amino)cyclohexyl)-1H-pyrazolo[4,3-c]pyridin-3-yl)-2,5-difluorophenyl)-2-fluorobenzenesulfonamide]: 20 nM and 12 nM.
